Results taken from patent US20240247026A1, “SALTS AND CRYSTALLINE FORMS OF (3E) 3-[O-[(PHOSPHONOOXY)METHYL]OXIME]-PREGN-4-ENE-3,20-DIONE AND RELATED USES” (NeuroTrauma Sciences LLC, priority 2021, published 2024).
“Also recorded” adds a separate entry of the source.

Key:
[1] = One week (7-day) stability testing, HPLC purity and XRPD form; settings: for Loss in purity, one week stability: open vial
Experimental: After one week the solids were analyzed by XRPD for physical stability and HPLC for purity.
Seven day stability testing was carried out for Form III at 40° C./75% RH and ambient in open vials. 80° C. was carried out in an open 2 mL vial within a closed 20 mL vial.
The crystalline Bis-Sodium Pattern 3 material underwent 7-day stability tests at 40° C./75% RH (open vial); at ambient temperature, light and humidity (open vial) and 80° C. (sealed vial), with post-stability storage XRPD and HPLC analysis. The solubility of the bis-sodium pattern 3 salt was assessed.

[2] = Thermodynamic solubility studies in pH buffers; settings: shaken at ambient ca. 24 h
Experimental: Ca. 6 mg of the salt was weighed into a 2 mL vial and 50 μL aliquots of pH 7.4 PBS was added until dissolution was obtained. […] The preparations were analyzed by XRPD, PLM, TG/DSC, DSC, DVS, FTIR, ^1H and ^31P NMR and HPLC purity. One week stability testing was carried out, salt disproportionation and hydration studies and thermodynamic solubility.
Salt disproportionation and hydration studies were carried out as follows: Ca. 30 mg of each salt was suspended in 400 μL of the solvent systems shown in and shaken at ambient for ca. 24 h. Thermodynamic solubility studies were carried out as follows: Ca. 30 mg of each salt was suspended in 400 μL of the solvent systems shown in and shaken at ambient for ca. 24 h.

[3] = Primary salt screen: XRPD re-analysis after drying at 40° C. and after storage at 40° C./75% RH; assay type: physicochemical; settings: for Remained pattern after 40° C.: dried at 40° C. for ca. two days; for Remained pattern after 40° C./78% RH: stored for ca. 24 h
Experimental: Salt crystallization screening was carried out as follows. Ca. […] The experiments were temperature cycled between ambient and 40° C. in 4 hour cycles for ca. 72 h. […] The solids were then isolated via centrifuge filter and analyzed by XRPD. Selected salts were dried at 40° ° C. for ca. two days and re-analyzed by XRPD. The salts were also characterized by TG/DSC and ^1H NMR.

[4] = Dynamic vapour sorption (DVS); assay type: physicochemical
Experimental: Dynamic Vapour Sorption (DVS). Approximately 10-20 mg of sample was placed into a mesh vapour sorption balance pan and loaded into a DVS Advantage dynamic vapour sorption balance by Surface Measurement Systems. The sample was subjected to a ramping profile from 40-90% relative humidity (RH) at 10% increments, maintaining the sample at each step until a stable weight had been achieved (dm/dt 0.004%, minimum step length 30 minutes, maximum step length 500 minutes) at 25° C. After completion of the sorption cycle, the sample was dried using the same procedure to 0% RH and then a second sorption cycle back to 40% RH. Two cycles were performed. The weight change during the sorption/desorption cycles were plotted, allowing for the hygroscopic nature of the sample to be determined. XRPD analysis was then carried out on any solid retained.

[5] = Salt disproportionation and hydration studies; assay type: physicochemical; settings: ambient, ca. 24 h; for Hydration studies, outcome: 3 water activities; for Disproportionation experiment, outcome: water
[6] = 80° C., listed as N-(hydroxyethyl)pyrrolidine Pattern 2
[7] = listed as N-(hydroxyethyl)pyrrolidine Pattern 2

**Q.** What does the source list for `CC(=O)[C@H]1CC[C@H]2[C@@H]3CCC4=CC(=NOCOP(=O)([O-])[O-])CC[C@]4(C)[C@H]3CC[C@]12C.[Na+].[Na+]` [Sodium Pattern 3]?
**A.** Decrease in purity, one week stability ([1]; 80° C.): Large drop in purity at 80 °C; XRPD form after one week stability ([1]; 80° C.): 40° C./75% RH, Pattern 5; Decrease in purity, one week stability ([1]; 80° C., listed as sodium salt Pattern 3): large drop in purity; XRPD form after one week stability ([1]; all conditions tested): form conversion; Solubility ([2]; pH 7.4): <12 mg/mL at pH 7.4

**Q.** What does the source list for `[K+]` [Potassium]?
**A.** Remained pattern after 40° C. [3]: Yes; Remained pattern after 40° C./78% RH [3]: No - Pattern 5; Remained pattern after 40° C./78% RH ([3]; listed as potassium Pattern 1): Pattern 5

**Q.** For `CC(=O)[C@H]1CC[C@H]2[C@@H]3CCC4=CC(=NOCOP(=O)(O)O)CC[C@]4(C)[C@H]3CC[C@]12C.OCCN1CCCC1.OCCN1CCCC1` [Form V], which “Remained pattern after 40° C.” value [3] is on record?
**A.** Its value is “Yes”.

**Q.** And the “Remained pattern after 40° C./78% RH” value [3]?
**A.** Its value is “Yes”.

**Q.** What about the “Loss in purity, one week stability” value ([1]; 40° C./75% RH) of the same compound?
**A.** Its value is “No loss in purity”.

**Q.** And the “Loss in purity, one week stability” value ([1]; 40° C./75% RH, listed as N-(hydroxyethyl)pyrrolidine Pattern 2)?
**A.** The value was “No loss in purity at ambient”.

**Q.** What about the “Decrease in purity, one week stability” value ([1]; 80° C.) of the same compound?
**A.** Its value is 0.9 % Area.

**Q.** And the “XRPD form after one week stability” value ([1]; 80° C.)?
**A.** The value was “some minor changes”.

**Q.** And the “Decrease in purity, one week stability” value [1, 6]?
**A.** Its value is “& 40° C./75% RH. 0.9% Area”.

**Q.** What about the “XRPD form after one week stability” value [1, 6] of the same compound?
**A.** Its value is “minor changes at 80 °C”.

**Q.** And the “XRPD form after one week stability” value ([1]; all conditions tested)?
**A.** The value was “Form V remained; also recorded: remain unchanged”.

**Q.** And the “XRPD form after one week stability” value ([1]; all conditions tested, listed as N-(hydroxyethyl)pyrrolidine Pattern 2)?
**A.** The value was “Remained Pattern 2, some”.

**Q.** And the “Loss in purity, one week stability” value ([1]; ambient light and temperature)?
**A.** Its value is “No loss in purity”.

**Q.** What about the “Loss in purity, one week stability” value ([1]; ambient light and temperature, listed as N-(hydroxyethyl)pyrrolidine Pattern 2) of the same compound?
**A.** Its value is “No loss in purity at ambient”.

**Q.** What about the “Post DVS XRPD form” value [4] of the same compound?
**A.** The value was “remain unchanged”.

**Q.** What about the DVS hygroscopic nature ([4]; 25° C.) of the same compound?
**A.** Its DVS hygroscopic nature is “hygroscopic”.

**Q.** And the “DVS total uptake at 90% RH” value ([4]; 25° C.)?
**A.** The value was 19.0%.

**Q.** And the “DVS total uptake at 90% RH as equivalents of water” value ([4]; 25° C.)?
**A.** The value was 7.3 equivalents of water.

**Q.** What about the “DVS uptake between 40% RH and 90% RH” value ([4]; 25° C.) of the same compound?
**A.** The value was 17.8%.

**Q.** What about the “DVS uptake between 40% RH and 90% RH” value ([4]; 25° C., listed as N-(hydroxyethyl)pyrrolidine Pattern 2) of the same compound?
**A.** Its value is 17.8% uptake between 40 &.

**Q.** And the Solubility ([2]; pH 7.4)?
**A.** Its Solubility is > 45 mg/mL.

**Q.** And the Solubility ([2]; pH 8)?
**A.** Its Solubility is > 39 mg/mL.

**Q.** And the Solubility ([2]; pH 8.5)?
**A.** Its Solubility is > 39 mg/mL.

**Q.** What about the “Hydration studies, outcome” value [5] of the same compound?
**A.** The value was “Solutions were obtained; also recorded: no solids after 24 h”.

**Q.** And the “Hydration studies, outcome” value [5, 7]?
**A.** Its value is “Solutions obtained”.

**Q.** What about the “Disproportionation experiment, outcome” value [5] of the same compound?
**A.** Its value is “Solutions were obtained; also recorded: no solids after 24 h”.

**Q.** What about the “Disproportionation experiment, outcome” value [5, 7] of the same compound?
**A.** Its value is “Solutions obtained”.

**Q.** For `CC(=O)C1CCC2C3CCC4=CC(=NOCOP(=O)(O)O)CCC4(C)C3CCC12C.NC(CO)(CO)CO` (stereo not shown) [Form III], which “XRPD form after one week stability” value ([1]; 80° C.) is on record?
**A.** The value was “Form IV”.

**Q.** With `NCCO` [Ethanolamine] as the compound, how does the “Remained pattern after 40° C.” value [3] read?
**A.** The value was “Yes”.

**Q.** For `CCNC[C@H](O)[C@@H](O)[C@H](O)[C@H](O)CO` [N-ethyl glucamine], which “Remained pattern after 40° C.” value [3] is on record?
**A.** The value was “Yes”.

**Q.** And the “Remained pattern after 40° C./78% RH” value [3]?
**A.** The value was “No. Mixture”.
